In patent US20260077071A1, “Targeted Delivery of Theranostic Agents” (Peter MacCallum Cancer Institute, priority 2022, published 2026):
Like-named read-outs stand apart in the source and are kept apart here. Values belong to the compound of their own block, whether it stands above or below them. Square brackets hold non-standard residues; d marks the D form. Peptide text beside a SMILES is read from it. * marks the point of attachment. DOTA = O=C(O)CN1CCN(CC(=O)O)CCN(CC(=O)*)CCN(CC(=O)O)CC1; Phe(F5) = N[C@@H](Cc1c(F)c(F)c(F)c(F)c1F)C(=O)O; Phe(3,4-F2) = N[C@@H](Cc1ccc(F)c(F)c1)C(=O)O; NMe1Nal = CN[C@@H](Cc1cccc2ccccc12)C(=O)O; Phe(4-NH2) = Nc1ccc(C[C@H](N)C(=O)O)cc1; Phe(4-F) = N[C@@H](Cc1ccc(F)cc1)C(=O)O; 1Nal = N[C@@H](Cc1cccc2ccccc12)C(=O)O; NMeNle = CCCC[C@H](NC)C(=O)O; Sar = CNCC(=O)O

Biological target: T1, human full-length CCK-2 receptor (Homo sapiens, UniProt P32239)
T1 construct: stably transfected to over-express the human full-length CCK-2 receptor (A431-CCK-2R); expressed in transfected cells
T1 sequence (P32239 1-447): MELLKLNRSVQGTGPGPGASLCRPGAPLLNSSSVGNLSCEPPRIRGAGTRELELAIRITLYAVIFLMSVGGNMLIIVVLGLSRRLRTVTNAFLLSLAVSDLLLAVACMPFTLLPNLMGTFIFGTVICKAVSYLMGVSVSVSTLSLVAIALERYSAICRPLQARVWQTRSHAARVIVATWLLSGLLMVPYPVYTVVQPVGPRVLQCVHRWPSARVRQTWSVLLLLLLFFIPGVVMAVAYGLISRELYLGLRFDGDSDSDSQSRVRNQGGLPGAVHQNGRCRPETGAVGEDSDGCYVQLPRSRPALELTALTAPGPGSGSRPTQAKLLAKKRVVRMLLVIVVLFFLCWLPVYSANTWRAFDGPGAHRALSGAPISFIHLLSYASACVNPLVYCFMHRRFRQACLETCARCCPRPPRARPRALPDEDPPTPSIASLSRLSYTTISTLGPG
Experiment: Competitive ligand binding against [^177Lu]Lu-DOTA-CP04 in A431-CCK-2R cells
Settings: for IC50: read-out: IC50; for decrease in affinity for the CCK-2 receptor: free peptide versus its linker/metal-complex (DOTA) form
Method: CCK-2 receptor binding experiments were conducted using A431 (human epidermoid carcinoma) cells stably transfected to over-express the human full-length CCK-2 receptor (A431-CCK-2R). As a negative control, A431 cells stably transfected with an empty vector were analysed simultaneously (A431-EV). A431 cells were maintained in DMEM (Gibco, Australia) media supplemented with 10% foetal calf serum and 250 μg/mL G418 as described previously (Aloj L, et al., J Nucl Med., 2004, Mar; 45(3), 485-94). The affinity of peptides for the CCK-2R was evaluated using competitive binding assays against [^177Lu]Lu-DOTA-CP04 in A431-CCK-2R cells. Briefly, 48 h before the experiment cells were plated at a density of 650,000 cells per well in 6 well plates. On the day of the experiment the peptides were diluted in DMEM supplemented with 1% foetal calf serum to at least 7 different concentrations (0-400 nM) and approximately 50,000 cpm of [^177Lu]Lu-DOTA-CP04 was added to each dilution. Cells were washed twice in ice-cold binding buffer (DMEM supplemented with 1% foetal calf serum) and resuspended in 1.5 mL of the pre-prepared compound mix before being incubated at 37° C. for 1 h. Post-incubation the media was removed and kept for analysis (unbound fraction) and the cells were washed twice in ice-cold binding buffer, which was pooled with the unbound fraction. Finally, 1 M NaOH was added to the cells and allowed to incubate for 5 min before lysates were collected (bound fraction). A small volume of lysate was kept aside to determine protein concentration using the Pierce® BCA protein assay kit (Thermo Fisher, Australia). All samples were analysed using the Perkin Elmer 2480 Wizard2™ gamma counter (PerkinElmer, Massachusetts, USA) and were normalised according to protein concentration. Half-maximal inhibitory concentrations (IC50) were determined using nonlinear regression calculated using GraphPad Prism Software (GraphPad Software, California, USA).
The compounds were evaluated for their ability to disrupt the binding between CCK-2 receptor (CCK-2R) and [^177Lu]Lu-DOTA-CP04 using the methodology described above and compared to comparative example-2 (FIG. 2; Table 5).

[1] = D-Ala substituted peptides (Table 2), against [^177Lu]Lu-DOTA-CP04 in A431-CCK-2R cells
[2] = substituted-phenylalanine peptides based on Cmp ex-1 (Table 3)
[3] = ^natGa chelated DOTA-compounds based on Peptide C (Table 5)
[4] = modified peptides based on Peptide C (Table 4)

SMILES: CCCC[C@@H](C(=O)N[C@@H](CC(=O)O)C(=O)N[C@@H](Cc1ccc(N)cc1)C(N)=O)N(C)C(=O)[C@H](Cc1c[nH]c2ccccc12)NC(=O)CN(C)C(=O)[C@H](Cc1ccc(O)cc1)NC(=O)[C@H](C)NC(=O)[C@@H](CCC(=O)O)NC(=O)[C@@H](CCC(=O)O)NC(=O)[C@@H](CCC(=O)O)NC(=O)[C@@H](CCC(=O)O)NC(=O)[C@@H](CCC(=O)O)NC(=O)[C@H](N)CCC(=O)O [K] (H-[dE][dE][dE][dE][dE][dE]AY[Sar]W[NMeNle]D[Phe(4-NH2)]-NH2; N-terminus assumed)
IC50 [2]: 0.52 nM

SMILES: CCCC[C@@H](C(=O)N[C@@H](CC(=O)O)C(=O)N[C@@H](Cc1c(F)c(F)c(F)c(F)c1F)C(N)=O)N(C)C(=O)[C@H](Cc1c[nH]c2ccccc12)NC(=O)CN(C)C(=O)[C@H](Cc1ccc(O)cc1)NC(=O)[C@H](C)NC(=O)[C@@H](CCC(=O)O)NC(=O)[C@@H](CCC(=O)O)NC(=O)[C@@H](CCC(=O)O)NC(=O)[C@@H](C)NC(=O)[C@@H](CCC(=O)O)NC(=O)[C@H](N)CCC(=O)O [T] (H-[dE][dE][dA][dE][dE][dE]AY[Sar]W[NMeNle]D[Phe(F5)]-NH2; N-terminus assumed)
IC50 [4]: 0.607 ± 0.052 nM

SMILES: CCCC[C@@H](C(=O)N[C@@H](CC(=O)O)C(=O)N[C@@H](Cc1ccc(F)cc1)C(N)=O)N(C)C(=O)[C@H](Cc1c[nH]c2ccccc12)NC(=O)CN(C)C(=O)[C@H](Cc1ccc(O)cc1)NC(=O)[C@H](C)NC(=O)[C@@H](CCC(=O)O)NC(=O)[C@@H](CCC(=O)O)NC(=O)[C@@H](CCC(=O)O)NC(=O)[C@@H](CCC(=O)O)NC(=O)[C@@H](CCC(=O)O)NC(=O)[C@H](N)CCC(=O)O [G] (H-[dE][dE][dE][dE][dE][dE]AY[Sar]W[NMeNle]D[Phe(4-F)]-NH2)
IC50 [2]: 0.92 nM

SMILES: CCCC[C@@H](C(=O)N[C@@H](CC(=O)O)C(=O)N[C@@H](Cc1ccc(O)cc1)C(N)=O)N(C)C(=O)[C@H](Cc1c[nH]c2ccccc12)NC(=O)CN(C)C(=O)[C@H](Cc1ccc(O)cc1)NC(=O)[C@H](C)NC(=O)[C@@H](CCC(=O)O)NC(=O)[C@@H](CCC(=O)O)NC(=O)[C@@H](CCC(=O)O)NC(=O)[C@@H](C)NC(=O)[C@@H](CCC(=O)O)NC(=O)[C@H](N)CCC(=O)O [Peptide R] (H-[dE][dE][dA][dE][dE][dE]AY[Sar]W[NMeNle]DY-NH2; N-terminus assumed)
IC50 [4]: 1.15 ± 0.096 nM

SMILES: CSCC[C@H](NC(=O)[C@H](Cc1c[nH]c2ccccc12)NC(=O)CNC(=O)[C@H](Cc1ccc(O)cc1)NC(=O)[C@H](C)NC(=O)[C@@H](CCC(=O)O)NC(=O)[C@@H](CCC(=O)O)NC(=O)[C@@H](CCC(=O)O)NC(=O)[C@@H](CCC(=O)O)NC(=O)[C@@H](CCC(=O)O)NC(=O)[C@@H](CCC(=O)O)NC(=O)CN1CCN(CC(=O)O)CCN(CC(=O)O)CCN(CC(=O)O)CC1)C(=O)N[C@@H](CC(=O)O)C(=O)N[C@@H](Cc1ccccc1)C(N)=O [CP04, reference compound]
decrease in affinity for the CCK-2 receptor: greater than 3 fold

SMILES: CCCC[C@@H](C(=O)N[C@@H](CC(=O)O)C(=O)N[C@@H](Cc1ccc(F)c(F)c1)C(N)=O)N(C)C(=O)[C@H](Cc1c[nH]c2ccccc12)NC(=O)CN(C)C(=O)[C@H](Cc1ccc(O)cc1)NC(=O)[C@H](C)NC(=O)[C@@H](CCC(=O)O)NC(=O)[C@@H](CCC(=O)O)NC(=O)[C@@H](CCC(=O)O)NC(=O)[C@@H](CCC(=O)O)NC(=O)[C@@H](CCC(=O)O)NC(=O)[C@H](N)CCC(=O)O [H] (H-[dE][dE][dE][dE][dE][dE]AY[Sar]W[NMeNle]D[Phe(3,4-F2)]-NH2)
IC50 [2]: 0.64 nM

Next, values leading:

loss of binding affinity / activity (D-Ala analogue versus baseline comparative example-1): approx. 5 fold
IC50 [1]: 1.62 nM
SMILES: CCCC[C@@H](C(=O)N[C@@H](CC(=O)O)C(=O)N[C@@H](Cc1cccc2ccccc12)C(N)=O)N(C)C(=O)[C@H](Cc1c[nH]c2ccccc12)NC(=O)CN(C)C(=O)[C@H](Cc1ccc(O)cc1)NC(=O)[C@H](C)NC(=O)[C@@H](CCC(=O)O)NC(=O)[C@@H](CCC(=O)O)NC(=O)[C@@H](C)NC(=O)[C@@H](CCC(=O)O)NC(=O)[C@@H](CCC(=O)O)NC(=O)[C@H](N)CCC(=O)O [D] (H-[dE][dE][dE][dA][dE][dE]AY[Sar]W[NMeNle]D[1Nal]-NH2)

IC50 [3]: 0.158 nM
SMILES: CCCC[C@@H](C(=O)N[C@@H](CC(=O)O)C(=O)N(C)[C@@H](Cc1cccc2ccccc12)C(N)=O)N(C)C(=O)[C@H](Cc1c[nH]c2ccccc12)NC(=O)CN(C)C(=O)[C@H](Cc1ccc(O)cc1)NC(=O)[C@H](C)NC(=O)[C@@H](CCC(=O)O)NC(=O)[C@@H](CCC(=O)O)NC(=O)[C@@H](CCC(=O)O)NC(=O)[C@@H](CCC(=O)O)NC(=O)[C@@H](CCC(=O)O)NC(=O)[C@@H](CCC(=O)O)NC(=O)CN1CCN(CC(=O)O)CCN(CC(=O)O)CCN(CC(=O)O)CC1 [^natGa-Cmp ex-2, metal not drawn, reference compound] ({DOTA}-[dE][dE][dE][dE][dE][dE]AY[Sar]W[NMeNle]D[NMe1Nal]-NH2)

IC50 [3]: 0.096 nM
SMILES: CCCC[C@@H](C(=O)N[C@@H](CC(=O)O)C(=O)N(C)[C@@H](Cc1cccc2ccccc12)C(N)=O)N(C)C(=O)[C@H](Cc1c[nH]c2ccccc12)NC(=O)CN(C)C(=O)[C@H](Cc1ccc(O)cc1)NC(=O)[C@H](C)NC(=O)[C@@H](CCC(=O)O)NC(=O)[C@@H](CCC(=O)O)NC(=O)[C@@H](CCC(=O)O)NC(=O)[C@@H](C)NC(=O)[C@@H](CCC(=O)O)NC(=O)[C@@H](CCC(=O)O)NC(=O)CN1CCN(CC(=O)O)CCN(CC(=O)O)CCN(CC(=O)O)CC1 [^natGa-4, metal not drawn] ({DOTA}-[dE][dE][dA][dE][dE][dE]AY[Sar]W[NMeNle]D[NMe1Nal]-NH2)

IC50 [3]: 0.042 nM
SMILES: CCCC[C@@H](C(=O)N[C@@H](CC(=O)O)C(=O)N[C@@H](Cc1ccccc1)C(N)=O)N(C)C(=O)[C@H](Cc1c[nH]c2ccccc12)NC(=O)CN(C)C(=O)[C@H](Cc1ccc(O)cc1)NC(=O)[C@H](C)NC(=O)[C@@H](CCC(=O)O)NC(=O)[C@@H](CCC(=O)O)NC(=O)[C@@H](CCC(=O)O)NC(=O)[C@@H](C)NC(=O)[C@@H](CCC(=O)O)NC(=O)[C@@H](CCC(=O)O)NC(=O)CN1CCN(CC(=O)O)CCN(CC(=O)O)CCN(CC(=O)O)CC1 [^natGa-3, metal not drawn] ({DOTA}-[dE][dE][dA][dE][dE][dE]AY[Sar]W[NMeNle]DF-NH2)

IC50 [3]: 0.08 nM
SMILES: CCCC[C@@H](C(=O)N[C@@H](CC(=O)O)C(=O)N[C@@H](Cc1cccc2ccccc12)C(N)=O)N(C)C(=O)[C@H](Cc1c[nH]c2ccccc12)NC(=O)CN(C)C(=O)[C@H](Cc1ccc(O)cc1)NC(=O)[C@H](C)NC(=O)[C@@H](CCC(=O)O)NC(=O)[C@@H](CCC(=O)O)NC(=O)[C@@H](CCC(=O)O)NC(=O)[C@@H](C)NC(=O)[C@@H](CCC(=O)O)NC(=O)[C@@H](CCC(=O)O)NC(=O)CN1CCN(CC(=O)O)CCN(CC(=O)O)CCN(CC(=O)O)CC1 [^natGa-1, metal not drawn] ({DOTA}-[dE][dE][dA][dE][dE][dE]AY[Sar]W[NMeNle]D[1Nal]-NH2)

IC50 [1]: 0.319 nM
decrease in affinity for the CCK-2 receptor: 5 fold
SMILES: CCCC[C@@H](C(=O)N[C@@H](CC(=O)O)C(=O)N[C@@H](Cc1cccc2ccccc12)C(N)=O)N(C)C(=O)[C@H](Cc1c[nH]c2ccccc12)NC(=O)CN(C)C(=O)[C@H](Cc1ccc(O)cc1)NC(=O)[C@H](C)NC(=O)[C@@H](CCC(=O)O)NC(=O)[C@@H](CCC(=O)O)NC(=O)[C@@H](CCC(=O)O)NC(=O)[C@@H](CCC(=O)O)NC(=O)[C@@H](CCC(=O)O)NC(=O)[C@H](N)CCC(=O)O [Cmp ex-1, reference compound] (H-[dE][dE][dE][dE][dE][dE]AY[Sar]W[NMeNle]D[1Nal]-NH2; N-terminus assumed)
